The subject of one assay is U937 cells. Put plainly: EC50 of necroptosis inhibition in U937 cells (TSZ-induced, CellTiter-Glo). The format is cell-based. To be noted: Homo sapiens, U-937; TSZ (hTNF-α, SM-164, Z-VAD-FMK) 20 hours; 10 concentration points; read-out: EC50 intervals of necroptosis inhibition in U937 cells. The essentials:
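U937 cells pretreated 15 min with compound (10-point, 1:3 series), then necroptosis induced by TSZ (hTNF-α, SM-164, Z-VAD-FMK) for 20 h at 37 °C. Viability measured as ATP by CellTiter-Glo luminescence; inhibition normalised to untreated and TSZ-only wells, EC50 from four-parameter fit.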
Background: In ATP-based viability assays light output follows the ATP content of the culture.

The next assay concerns the target T1, RIPK1 kinase (Homo sapiens, UniProt Q13546).
T1 construct: purchased Promega VA7593
T1 sequence (Q13546 1-671): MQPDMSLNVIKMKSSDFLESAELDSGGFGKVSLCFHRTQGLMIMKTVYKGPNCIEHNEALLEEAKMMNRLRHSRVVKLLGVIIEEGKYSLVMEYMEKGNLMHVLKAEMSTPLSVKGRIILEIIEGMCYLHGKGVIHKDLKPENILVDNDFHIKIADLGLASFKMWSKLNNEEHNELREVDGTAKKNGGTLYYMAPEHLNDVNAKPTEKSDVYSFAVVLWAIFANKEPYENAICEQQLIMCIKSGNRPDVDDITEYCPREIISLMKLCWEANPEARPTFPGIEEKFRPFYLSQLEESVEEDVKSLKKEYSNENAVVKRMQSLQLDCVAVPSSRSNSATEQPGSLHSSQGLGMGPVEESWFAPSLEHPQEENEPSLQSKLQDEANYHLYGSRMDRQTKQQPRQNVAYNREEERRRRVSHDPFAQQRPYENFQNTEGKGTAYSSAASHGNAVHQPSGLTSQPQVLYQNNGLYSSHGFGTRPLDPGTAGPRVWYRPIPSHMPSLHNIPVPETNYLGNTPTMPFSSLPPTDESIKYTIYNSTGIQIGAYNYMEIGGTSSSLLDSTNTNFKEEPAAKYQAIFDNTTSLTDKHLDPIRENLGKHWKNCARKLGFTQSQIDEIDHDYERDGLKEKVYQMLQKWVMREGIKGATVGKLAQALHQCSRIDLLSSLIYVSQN
Put plainly: In vitro RIPK1 kinase activity IC50 assay (ADP-Glo). Conditions: ATP 10 μM; MBP substrate 100 μg/mL; 8 concentration points; read-out: IC50 range of compounds for RIPK1 kinase activity. It counts as biochemical. The essentials: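 Human RIPK1 preincubated 15 min at room temperature with compound (8-point 1:5 dilution series, 1% DMSO in kinase buffer D). Reaction then ran 1 h with 10 μM ATP and 100 μg/mL MBP substrate; ADP measured by ADP-Glo luminescence, IC50 from four-parameter nonlinear fit.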
(ADP-Glo turns the ADP formed in a reaction into a luminescent signal.)

A word on the EC50: it is the concentration needed to bring the measured effect to its halfway point. One may read the IC50 as the point on the concentration scale where inhibition reaches its midpoint.

For the molecule `CCOC(=O)CCC#Cc1ccc2c(c1)N(C)C(=O)[C@@H](NC(=O)C(=O)NCCc1ccccc1)CO2` [Example 94, ethyl (S)-5-(5-methyl-4-oxo-3-(2-oxo-2-(phenethylamino)acetamido)-2,3,4,5-tetrahydrobenzo[b][1,4]oxazepin-7-yl) pent-4-ynoate], the EC50 in the assay with U937 cells is 100 to 500 nM. For the same molecule, the IC50 on RIPK1 kinase is less than 100 nM.

In the case of `CN1C(=O)[C@@H](NC(=O)C(=O)NCc2ccccc2)COc2ccc(C#CCn3ccnc3)cc21` [Example 104, (S)—N^1-(7-(3-(1H-imidazol-1-yl)prop-1-yn-1-yl)-5-methyl-4-oxo-2,3,4,5-tetrahydrobenzo[b][1,4]oxazepin-3-yl)-N^2-benzyloxalamide], in the assay on U937 cells, the half-maximal effective concentration (EC50) was less than 100 nM. Besides, the 50% inhibitory concentration (IC50) on RIPK1 kinase was less than 100 nM.

For the molecule `CN1C(=O)[C@@H](NC(=O)C(=O)NCc2ccccc2)COc2ccc(C#CCN3CCOCC3)cc21` [Example 106, (S)—N^1-benzyl-N^2-(5-methyl-7-(3-morpholinoprop-1-yn-1-yl)-4-oxo-2,3,4,5-tetrahydrobenzo[b][1, 4]oxazepin-3-yl)oxalamide], the EC50 with U937 cells is less than 100 nM. For the same molecule, the IC50 at RIPK1 kinase was less than 100 nM.

Take `CN1C(=O)[C@@H](NC(=O)C(=O)NCc2ccccc2)COc2ccc(C#CCN3CCNC(=O)C3)cc21` [Example 107, (S)—N^1-benzyl-N^2-(5-methyl-4-oxo-7-(3-(3-oxopiperazin-1-yl)prop-1-yn-1-yl)-2,3,4,5-tetrahydrobenzo[b][1,4]oxazepin-3-yl)oxalamide]: the EC50 in the assay on U937 cells was less than 100 nM. Besides, at RIPK1 kinase, the IC50 is less than 100 nM.

In the case of `CN1C(=O)[C@H](NC(=O)C(=O)NCCc2cccc(F)c2)COc2ccc(C#CCCO)cc21` [Example 109, (R)—N^1-(3-fluorophenethyl)-N^2-(7-(4-hydroxybut-1-yn-1-yl)-5-methyl-4-oxo-2,3,4,5-tetrahydrobenzo[b][1,4]oxazepin-3-yl)oxalamide], in the assay on U937 cells, the concentration giving a half-maximal response (EC50) was less than 100 nM. In addition, the concentration for half-maximal inhibition (IC50) on RIPK1 kinase is less than 100 nM.

Take `CN1C(=O)[C@@H](NC(=O)C(=O)NCCc2cccc(F)c2)COc2ccc(C#CC3(O)COC3)cc21` [Example 110, (S)—N^1-(3-fluorophenethyl)-N^2-(7-((3-hydroxyoxetan-3-yl)ethynyl)-5-methyl-4-oxo-2,3,4,5-tetrahydrobenzo[b][1,4]oxazepin-3-yl)oxalamide]: the EC50 in the assay with U937 cells is less than 100 nM. Besides, the IC50 on RIPK1 kinase is less than 100 nM.

Regarding `CN1C(=O)[C@@H](NC(=O)C(=O)NCCc2cccc(F)c2)COc2ccc(C#CCN3CC[C@@H](O)C3)cc21` [Example 114, N^1-(3-fluorophenethyl)-N^2-((S)-7-(3-((R)-3-hydroxypyrrolidin-1-yl)prop-1-yn-1-yl)-5-methyl-4-oxo-2,3,4,5-tetrahydrobenzo[b][1,4]oxazepin-3-yl)oxalamide], in the assay with U937 cells, the EC50 is less than 100 nM. The IC50 on RIPK1 kinase was less than 100 nM.

As to `CN1C(=O)[C@@H](NC(=O)C(=O)NCCc2cccc(F)c2)COc2ccc(C#CCN3CC[C@H](O)C3)cc21` [Example 115, N^1-(3-fluorophenethyl)-N^2-((S)-7-(3-((S)-3-hydroxypyrrolidin-1-yl)prop-1-yn-1-yl)-5-methyl-4-oxo-2,3,4,5-tetrahydrobenzo[b][1,4]oxazepin-3-yl)oxalamide], the concentration for a half-maximal effect (EC50) in the assay with U937 cells is less than 100 nM. Further, the half-maximal inhibitory concentration (IC50) on RIPK1 kinase was less than 100 nM.

Consider `CN1C(=O)[C@@H](NC(=O)C(=O)NCCc2cccc(F)c2)COc2ccc(C#Cc3cccnc3)cc21` [Example 117, (S)—N^1-(3-fluorophenethyl)-N^2-(5-methyl-4-oxo-7-(pyridin-3-ylethynyl)-2,3,4,5-tetrahydrobenzo[b][1,4]oxazepin-3-yl)oxalamide], for which, in the assay on U937 cells, the EC50 was less than 100 nM. Besides, the half-maximal inhibitory concentration (IC50) on RIPK1 kinase was less than 100 nM.

For `CN1C(=O)[C@@H](NC(=O)C(=O)NCCc2cccc(F)c2)COc2ccc(C#CCN3CCC(=O)CC3)cc21` [Example 118, (S)—N^1-(3-fluorophenethyl)-N^2-(5-methyl-4-oxo-7-(3-(4-oxopiperidin-1-yl)prop-1-yn-1-yl)-2,3,4,5-tetrahydrobenzo[b][1,4]oxazepin-3-yl)oxalamide], the EC50 with U937 cells was less than 100 nM. The half-maximal inhibitory concentration (IC50) at RIPK1 kinase was less than 100 nM.

Regarding `CN1C(=O)[C@@H](NC(=O)C(=O)NCCc2cccc(F)c2)COc2ccc(C#CCN3CCOCC3)cc21` [Example 120, (S)—N^1-(3-fluorophenethyl)-N^2-(5-methyl-7-(3-morpholinoprop-1-yn-1-yl)-4-oxo-2,3,4,5-tetrahydrobenzo[b][1,4]oxazepin-3-yl)oxalamide], the EC50 with U937 cells is less than 100 nM. Also, the IC50 on RIPK1 kinase was less than 100 nM.

Regarding `CN1C(=O)[C@@H](NC(=O)C(=O)NCCc2cccc(F)c2)COc2ccc(C#CCN3C(=O)CCC3=O)cc21` [Example 122, (S)—N^1-(7-(3-(2,5-dioxopyrrolidin-1-yl)prop-1-yn-1-yl)-5-methyl-4-oxo-2,3,4,5-tetrahydrobenzo[b][1,4]oxazepin-3-yl)-N^2-(3-fluorophenethyl)oxalamide], in the assay with U937 cells, the EC50 was less than 100 nM. Moreover, the half-maximal inhibitory concentration (IC50) at RIPK1 kinase is less than 100 nM.

For `CN1C(=O)[C@@H](NC(=O)C(=O)NCCc2cccc(F)c2)COc2ccc(C#CCN3CCNC(=O)C3)cc21` [Example 123, (S)—N^1-(3-fluorophenethyl)-N^2-(5-methyl-4-oxo-7-(3-(3-oxopiperazin-1-yl)prop-1-yn-1-yl)-2,3,4,5-tetrahydrobenzo[b][1,4]oxazepin-3-yl)oxalamide], the EC50 with U937 cells was less than 100 nM. For the same molecule, the concentration for half-maximal inhibition (IC50) on RIPK1 kinase is less than 100 nM.

In the case of `C[C@@H](NC(=O)C(=O)N[C@H]1COc2ccc(C#CCN3CC[C@@H](O)C3)cc2N(C)C1=O)c1ccccc1` [Example 128, N^1-((S)-7-(3-((R)-3-hydroxypyrrolidin-1-yl)prop-1-yn-1-yl)-5-methyl-4-oxo-2,3,4,5-tetrahydrobenzo[b][1,4]oxazepin-3-yl)-N^2-((R)-1-phenylethyl)oxalamide], in the assay on U937 cells, the EC50 was less than 100 nM. The half-maximal inhibitory concentration (IC50) on RIPK1 kinase is less than 100 nM.

In the case of `C[C@@H](NC(=O)C(=O)N[C@H]1COc2ccc(C#CCN3CC[C@H](O)C3)cc2N(C)C1=O)c1ccccc1` [Example 130, N^1-((S)-7-(3-((S)-3-hydroxypyrrolidin-1-yl)prop-1-yn-1-yl)-5-methyl-4-oxo-2,3,4,5-tetrahydrobenzo[b][1,4]oxazepin-3-yl)-N^2-((R)-1-phenylethyl)oxalamide], the EC50 with U937 cells is less than 100 nM. Further, the concentration for half-maximal inhibition (IC50) at RIPK1 kinase is less than 100 nM.

Turning to `C[C@@H](NC(=O)C(=O)N[C@H]1COc2ccc(C#CC3(O)COC3)cc2N(C)C1=O)c1ccccc1` [Example 132, N^1-((S)-7-((3-hydroxyoxetan-3-yl)ethynyl)-5-methyl-4-oxo-2,3,4,5-tetrahydrobenzo[b][1,4]oxazepin-3-yl)-N^2-((R)-1-phenylethyl)oxalamide], the concentration for a half-maximal effect (EC50) in the assay on U937 cells was less than 100 nM. Further, the half-maximal inhibitory concentration (IC50) at RIPK1 kinase was less than 100 nM.

Turning to `C[C@@H](NC(=O)C(=O)N[C@H]1COc2ccc(C#CC3CCN(CC#N)CC3)cc2N(C)C1=O)c1ccccc1` [Example 137, N^1-((S)-7-((1-(cyanomethyl)piperidin-4-yl)ethynyl)-5-methyl-4-oxo-2,3,4,5-tetrahydrobenzo[b][1, 4]oxazepin-3-yl)-N^2-((R)-1-phenylethyl)oxalamide], in the assay with U937 cells, the half-maximal effective concentration (EC50) is less than 100 nM. At RIPK1 kinase, the IC50 is less than 100 nM.

Consider `C[C@@H](NC(=O)C(=O)N[C@H]1COc2ccc(C#CCN3CCC(O)CC3)cc2N(C)C1=O)c1ccccc1` [Example 138, N^1-((S)-7-(3-(4-hydroxypiperidin-1-yl)prop-1-yn-1-yl)-5-methyl-4-oxo-2,3,4,5-tetrahydrobenzo[b][1,4]oxazepin-3-yl)-N^2-((R)-1-phenylethyl)oxalamide], for which the half-maximal effective concentration (EC50) in the assay on U937 cells was less than 100 nM. In addition, the IC50 on RIPK1 kinase is less than 100 nM.

`C[C@@H](NC(=O)C(=O)N[C@H]1COc2ccc(C#CCN3CCC(=O)CC3)cc2N(C)C1=O)c1ccccc1` [Example 139, N^1-((S)-5-methyl-4-oxo-7-(3-(4-oxopiperidin-1-yl)prop-1-yn-1-yl)-2,3,4,5-tetrahydrobenzo[b][1, 4]oxazepin-3-yl)-N^2-((R)-1-phenylethyl)oxalamide]: in the assay on U937 cells, the EC50 was less than 100 nM. Further, the IC50 on RIPK1 kinase was less than 100 nM.

In the case of `C[C@@H](NC(=O)C(=O)N[C@H]1COc2ccc(C#CCN3CCOCC3)cc2N(C)C1=O)c1ccccc1` [Example 140, N^1-((S)-5-methyl-7-(3-morpholinoprop-1-yn-1-yl)-4-oxo-2,3,4,5-tetrahydrobenzo[b][1,4]oxazepin-3-yl)-N^2-((R)-1-phenylethyl)oxalamide], the EC50 in the assay with U937 cells is less than 100 nM. On RIPK1 kinase, the IC50 was less than 100 nM.

Source of the values: patent US20250368633A1, “AZEPINE FUSED RING COMPOUND AS RIPK1 INHIBITOR AND USE THEREOF” (ARTIVILA BIOPHARMA, priority 2022, published 2025).
